We go through 21 compounds from ChEMBL document CHEMBL1140199, “Synthesis and antimicrobial activity of 2-alkenylchroman-4-ones, 2-alkenylthiochroman-4-ones and 2-alkenylquinol-4-ones” (2008).

Holding throughout (format): functional
The subject of one experiment is Candida maltosa. Nature of the experiment: Antimicrobial activity against Candida maltosa.
The next experiment relates to Bacillus subtilis. Nature of the experiment: Antimicrobial activity against Bacillus subtilis ATCC 6051.
Another experiment relates to Escherichia coli. Nature of the experiment: Antimicrobial activity against Escherichia coli ATCC 11229.
A further experiment concerns Staphylococcus aureus. The experiment in a line: Antimicrobial activity against Staphylococcus aureus ATCC 6538. As to conditions: for MIC: Staphylococcus aureus, ATCC 6538.

Converted amounts (≈) assume the structure as drawn. The source made the active and inactive calls. No cut-off for these calls is given here.

In the case of `C=CC1CC(=O)c2ccccc2S1` (stereo not given), the “inhibition zone (IZ)” value in the experiment on Candida maltosa is given as 6 mm. Also, the result in the experiment with Bacillus subtilis, in the experiment with Escherichia coli and with Staphylococcus aureus was inactive.
NYSTATIN displayed an inhibition zone (IZ) in the experiment on Candida maltosa of 28 mm.
Take `C=C(C)C1CC(=O)c2ccccc2O1` (stereo not given): the outcome in the experiment on Candida maltosa, in the experiment with Bacillus subtilis and in the experiment with Staphylococcus aureus was inactive. Further, in the experiment with Escherichia coli, the “inhibition zone (IZ)” value came out at 10 mm.
For `C=CC1CC(=O)c2cc(Br)ccc2O1` (stereo not given), the minimum inhibitory concentration (MIC) – broadly, the least concentration at which growth counts as inhibited – in the experiment with Staphylococcus aureus was determined as 5.62 µg/mL (≈ 22.2 µM).
In the case of `C=C(C)C1CC(=O)c2cc(Br)ccc2O1` (stereo not given), the outcome in the experiment on Candida maltosa and with Bacillus subtilis was inactive. Also, the results for the “inhibition zone (IZ)” value in the experiment on Escherichia coli and with Staphylococcus aureus were 8 mm and 16 mm, respectively.
For the compound `C=CC1CC(=O)c2cc(Br)ccc2N1C(=O)OC` (stereo not given), the result in the experiment with Candida maltosa, in the experiment on Bacillus subtilis, in the experiment with Escherichia coli and in the experiment with Staphylococcus aureus was inactive.
Consider `C=CC1CC(=O)c2cc(Cl)ccc2S1` (stereo not given), for which the “inhibition zone (IZ)” value with Candida maltosa is given as 6 mm. Besides, the outcome in the experiment with Bacillus subtilis, in the experiment with Escherichia coli and in the experiment on Staphylococcus aureus was inactive.
Regarding `CC1(C)S[C@@H]2[C@H](NC(=O)[C@H](N)c3ccccc3)C(=O)N2[C@H]1C(=O)O` [AMPICILLIN], the results for the “inhibition zone (IZ)” value in the experiment with Bacillus subtilis, with Escherichia coli and with Staphylococcus aureus were 25 mm, 19 mm and 27 mm, respectively.
In the case of `C=C(C)C1CC(=O)c2cc(Cl)ccc2N1C(=O)OC` (stereo not given), the outcome in the experiment with Candida maltosa, in the experiment on Bacillus subtilis, with Escherichia coli and in the experiment on Staphylococcus aureus was inactive.
Consider `C=C(C)C1CC(=O)c2ccccc2S1` (stereo not given), for which the result in the experiment on Candida maltosa, in the experiment on Bacillus subtilis, with Escherichia coli and with Staphylococcus aureus was inactive.
On to `C/C=C/C1CC(=O)c2cc(Cl)ccc2O1` (stereo not given), for which the result with Candida maltosa, in the experiment with Bacillus subtilis and with Staphylococcus aureus was inactive. In the experiment with Escherichia coli, the “inhibition zone (IZ)” value worked out at 10 mm.
For the compound `C/C=C/C1CC(=O)c2cc(Br)ccc2O1` (stereo not given), the result in the experiment with Candida maltosa, with Bacillus subtilis and in the experiment with Staphylococcus aureus was inactive. Moreover, the “inhibition zone (IZ)” value in the experiment with Escherichia coli turned out to be 9 mm.
Take `C=C(C)C1CC(=O)c2cc(Cl)ccc2S1` (stereo not given): the outcome in the experiment on Candida maltosa, in the experiment with Bacillus subtilis, in the experiment with Escherichia coli and in the experiment with Staphylococcus aureus was inactive.
For the compound `C/C=C(\C)C1CC(=O)c2cc(Cl)ccc2O1` (stereo not given), the result in the experiment on Candida maltosa, with Bacillus subtilis, in the experiment with Escherichia coli and in the experiment on Staphylococcus aureus was inactive.
As for `C=CC1CC(=O)c2cc(Cl)ccc2O1` (stereo not given), the “inhibition zone (IZ)” value in the experiment on Candida maltosa is reported as 40 mm; with Bacillus subtilis it was 29 mm; with Escherichia coli, 17 mm; in the experiment on Staphylococcus aureus, 40 mm. Moreover, the MIC stood at 4.17 µg/mL (≈ 20 µM) against Bacillus subtilis (Bacillus subtilis, ATCC 6051); 4.17 µg/mL (≈ 20 µM) against Escherichia coli (Escherichia coli, ATCC 11229); 7.3 µg/mL (≈ 35 µM) in the experiment on Staphylococcus aureus.
Regarding `C=CC1CC(=O)c2ccccc2O1` (stereo not given), the result with Candida maltosa, in the experiment on Bacillus subtilis, in the experiment with Escherichia coli and in the experiment with Staphylococcus aureus was inactive.
In the case of `C=C(C)C1CC(=O)c2cc(Cl)ccc2O1` (stereo not given), the result in the experiment with Candida maltosa and with Bacillus subtilis was inactive. In addition, the “inhibition zone (IZ)” value is given as 9 mm with Escherichia coli and 17 mm in the experiment on Staphylococcus aureus.
`C=CC1CC(=O)c2cc(Cl)ccc2N1C(=O)OC` (stereo not given): the result with Candida maltosa, in the experiment on Bacillus subtilis, with Escherichia coli and with Staphylococcus aureus was inactive.
For `C=CC1CC(=O)c2c(Cl)cc(Cl)cc2N1C(=O)OC` (stereo not given), the result with Candida maltosa, in the experiment with Bacillus subtilis, in the experiment on Escherichia coli and in the experiment with Staphylococcus aureus was inactive.
Consider `C=CC1CC(=O)c2cc(F)ccc2N1C(=O)OC` (stereo not given), for which the result in the experiment with Candida maltosa, in the experiment on Bacillus subtilis, in the experiment with Escherichia coli and with Staphylococcus aureus was inactive.
For the compound `C/C=C(\C)C1CC(=O)c2cc(Br)ccc2O1` (stereo not given), the result in the experiment with Candida maltosa, with Bacillus subtilis, in the experiment on Escherichia coli and in the experiment on Staphylococcus aureus was inactive.
